Source: patent publication US20150322527A1, “TRANSCRIPTIONAL PROFILING AND BIOMARKER-BASED METHODS FOR IDENTIFYING AND EVALUATING AGENTS FOR ANTIOXIDANT EFFICACY IN COSMETIC SKIN CARE FORMULATIONS” (The Procter & Gamble Company, priority 2010, published 2015)

Tested on: Nrf2-mediated transcription off the antioxidant response element (ARE)
Test: ARE activation assay (ARE32 luciferase reporter cell line)
Type: cell-based
Conditions: 24 hrs
Excerpt: An ARE reporter cell line may be developed and used to screen for compounds that increase transcription off the ARE in response to oxidative stress, resulting in an increase in cellular antioxidant defense proteins. An ARE32 reporter cell line was adapted to provide an assay for cosmetic agents which may increase transcription off the ARE and increase expression of Phase 2 enzymes, thus augmenting the body's own antioxidant response. ARE32 is a stable reporter cell line produced by CXR Biosciences by transfecting MCF7 cells with pGL8x-ARE (8 copies of the rat GST ARE linked to the luciferase gene) and pCDNA3.1 which contains the neomycin selectable marker. Selection is performed in the presence of G418 and resistant clones are isolated and screened for induction of luciferase. An exemplary standard is tert-butyl hydroquinone (tBHQ), a known activator of Nrf2. ARE32 is a stable MCF7 cell line containing pGL8x-ARE (8 copies of the rat GST ARE linked to the luciferase gene) and pCDNA3.1 which contains the neomycin selectable marker, which was licensed from CXRbiosciences. Selection was performed in the presence of G418 and resistant clones were isolated. Clones were screened for induction of luciferase in response to tBHQ. ARE32 cells are maintained routinely in the DMEM (phenol red free) containing: • 10% FBS • 50 units/ml penicillin & 50 μg/ml streptomycin • 0.8 mg/ml G418 • Cells are subcultured every 3-4 days. […] Induction of Luciferase with tBHQ • 1. In a 96 well-plate, seed 1×10^4 cells/well in 100 μl DMEM containing 50 units/ml penicillin, 50 μg/ml streptomycin, 0.8 mg/ml G418 and 10% FBS. • 2. Incubate the cells at 37° C. in a 5% CO2 incubator for 24 hrs. • 3. […] (10 mM tBHQ of stock solution was freshly prepared in DMSO) • 4. Add 100 ul of media after treatment, final assay volume 200 uL. • 5. Incubate the cells at 37° C. in CO2 incubator for another 24 hrs. • 6. Assay for luciferase activity with Steady-glo Assay System by following the manufacture's instruction: • a. Remove 100 μL of media • b. Add 100 μl of reconstituted substrate directly to well • c. Incubate 5-10 min shaking. • d. […] Read plate for 5 seconds per well. The ARE activation assay described in Example 3 is employed. To test for transcription off the antioxidant response element, the reporter line is grown, compounds are added, each compound in varying doses, and allowed to incubate for 24 hours. Cells are then lysed and luminescent output is detected and quantified. […] Proposed compounds are screened using the ARE assay set forth in Example 3, above. Table 4 illustrates “ARE screening hits” along with concentrations tested for each compound and the observed percent increase in ARE. […]

| Compound | ARE (% control) (concentration tested 200 μM) | ARE (% control) (concentration tested 0.01%) |
| --- | --- | --- |
| O=C(O)CCCCC1CCSS1 (stereo not drawn) [Alpha-lipoic acid] | 534 | – |
| O=C(/C=C/c1ccc(O)c(O)c1)O[C@H](Cc1ccc(O)c(O)c1)C(=O)O [Rosmarinic acid] | 1211 | – |
| CCCCCC/C=C/C#CCCCCCCCC(=O)O [Xymenynic acid] | 329 | – |
| Umbelliferin | – | 1815 |
